Source: ChEMBL document CHEMBL5042544, “Discovery of a Potent and Selective ATAD2 Bromodomain Inhibitor with Antiproliferative Activity in Breast Cancer Models” (J Med Chem, 2022)

Tests used:
[1] = target: T1, ATPase family AAA domain-containing protein 2 (Homo sapiens, UniProt Q6PL18); experiment: Inhibition of GST-ATAD2 BD (951 to 1132 residues) (unknown origin) expressed in Escherichia coli BL21 (DE3) and biotinylated tetra-acetylated histone H4 peptides as substrate incubated for 30 mins by TR-FRET assay
T1 sequence (Q6PL18 whole entry): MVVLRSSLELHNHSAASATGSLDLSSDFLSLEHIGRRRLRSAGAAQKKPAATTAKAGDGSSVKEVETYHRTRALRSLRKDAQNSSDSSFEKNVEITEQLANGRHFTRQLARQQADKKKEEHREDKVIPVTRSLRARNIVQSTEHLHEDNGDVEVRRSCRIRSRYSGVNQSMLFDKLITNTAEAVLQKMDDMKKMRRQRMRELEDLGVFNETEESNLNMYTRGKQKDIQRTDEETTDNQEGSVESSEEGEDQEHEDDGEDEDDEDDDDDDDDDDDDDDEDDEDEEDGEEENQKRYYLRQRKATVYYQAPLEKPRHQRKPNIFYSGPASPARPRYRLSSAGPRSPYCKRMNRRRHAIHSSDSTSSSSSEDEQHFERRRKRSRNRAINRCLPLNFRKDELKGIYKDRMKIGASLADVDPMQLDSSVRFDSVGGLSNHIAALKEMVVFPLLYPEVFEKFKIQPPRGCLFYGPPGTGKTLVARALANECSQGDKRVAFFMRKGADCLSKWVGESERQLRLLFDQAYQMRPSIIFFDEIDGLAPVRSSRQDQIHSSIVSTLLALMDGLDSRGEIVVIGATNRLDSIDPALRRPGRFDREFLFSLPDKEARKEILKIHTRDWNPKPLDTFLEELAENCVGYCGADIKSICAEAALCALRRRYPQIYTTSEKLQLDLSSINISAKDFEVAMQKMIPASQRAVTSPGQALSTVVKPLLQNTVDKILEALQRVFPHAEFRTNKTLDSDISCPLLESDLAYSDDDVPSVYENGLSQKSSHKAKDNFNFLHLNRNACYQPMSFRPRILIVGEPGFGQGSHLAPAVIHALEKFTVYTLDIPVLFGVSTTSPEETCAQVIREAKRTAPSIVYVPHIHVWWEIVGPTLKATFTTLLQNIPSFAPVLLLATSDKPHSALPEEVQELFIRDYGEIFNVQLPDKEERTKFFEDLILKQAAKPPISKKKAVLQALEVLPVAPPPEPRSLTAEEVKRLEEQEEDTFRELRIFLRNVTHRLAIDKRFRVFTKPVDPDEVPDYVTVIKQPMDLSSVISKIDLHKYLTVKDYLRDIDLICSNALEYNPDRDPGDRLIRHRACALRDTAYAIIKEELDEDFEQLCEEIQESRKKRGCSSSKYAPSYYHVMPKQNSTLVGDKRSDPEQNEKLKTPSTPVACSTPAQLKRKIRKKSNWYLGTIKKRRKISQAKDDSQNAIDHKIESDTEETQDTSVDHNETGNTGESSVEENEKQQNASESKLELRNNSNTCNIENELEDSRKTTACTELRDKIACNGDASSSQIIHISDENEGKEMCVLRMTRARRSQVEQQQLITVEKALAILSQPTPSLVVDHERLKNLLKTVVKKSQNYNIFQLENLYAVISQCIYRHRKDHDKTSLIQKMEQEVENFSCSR

[2] = target: T1, ATPase family AAA domain-containing protein 2; experiment: Inhibition of GST-ATAD2 BD (951 to 1132 residues) (unknown origin) expressed in Escherichia coli BL21 (DE3) and biotinylated tetra-acetylated histone H4 peptides as substrate by TR-FRET artifact assay
[3] = target: T2, Bromodomain-containing protein 4 (Homo sapiens, UniProt O60885); experiment: Displacement of Alexafluor 647-JQ1 from GST-BRD4 BD1 BD2 (44 to 460 residues) (unknown origin) incubated for 60 mins by fluorescence polarization assay
[4] = Distribution coefficient, logD of compound at pH 7.4; assay type: physicochemical; settings: octanol/water
[5] = target: T1, ATPase family AAA domain-containing protein 2; experiment: Displacement of Halo-tagged Histone H3.3 from Nanoluc-ATAD2A BD (962 to 1119 residues) (unknown origin) transfected in human HCT116 cells incubated for 18 hrs by NanoBRET assay; assay type: cell-based, HCT-116
[6] = target: T2, Bromodomain-containing protein 4; experiment: Displacement of Halo-tagged Histone H3.3 from Nanoluc-BRD4 BD1/BD2 (44 to 460 residues) (unknown origin) transfected in human HCT116 cells incubated for 18 hrs by NanoBRET assay; assay type: cell-based, HCT-116
Homo sapiens = organism: Homo sapiens; experiment: Selectivity ratio of IC50 for Inhibition of […] GST-ATAD2 BD (981 to 1108 residues) (unknown origin) expressed in Escherichia coli BL21 (DE3) to IC50 for Halo-tagged Histone H3.3 from Nanoluc-ATAD2 BD ([…] residues) (unknown origin) transfected in human HCT116 cells
[7] = target: T1, ATPase family AAA domain-containing protein 2; experiment: Inhibition of GST-ATAD2 BD (981 to 1108 residues) (unknown origin) expressed in Escherichia coli BL21 (DE3) and biotinylated tetra-acetylated histone H4 peptides as substrate incubated for 30 mins by TR-FRET assay
[8] = target: T1, ATPase family AAA domain-containing protein 2; experiment: Displacement of Halo-tagged Histone H3.3 from Nanoluc-ATAD2 BD (962 to 1119 residues) (unknown origin) transfected in human HCT116 cells incubated for 18 hrs in presence of efflux inhibitor reversan by NanoBRET assay; assay type: cell-based, HCT-116
[9] = target: T1, ATPase family AAA domain-containing protein 2; experiment: Displacement of Halo-tagged Histone H3.3 from Nanoluc-ATAD2 BD (962 to 1119 residues) (unknown origin) transfected in human HCT116 cells incubated for 18 hrs in presence of efflux inhibitor verapamil by NanoBRET assay; assay type: cell-based, HCT-116
[10] = target: T1, ATPase family AAA domain-containing protein 2; experiment: Displacement of Halo-tagged Histone H3.3 from Nanoluc-ATAD2 BD (962 to 1119 residues) (unknown origin) transfected in human HCT116 cells incubated for 18 hrs in presence of efflux inhibitor elacridar by NanoBRET assay; assay type: cell-based, HCT-116
MDA-MB-231 = experiment: Antiproliferative activity against human MDA-MB-231 cells assessed as inhibition of proliferation after 72 hrs; assay type: functional

| SMILES | IC50 [1] [µM] | IC50 [2] [µM] | IC50 [3] [µM] | logD [4] | IC50 [5] [µM] | IC50 [6] [µM] | IC50 [7] [µM] | IC50 [8] [µM] | IC50 [9] [µM] | IC50 [10] [µM] | GI50 (MDA-MB-231) [µM] | Ratio IC50 (Homo sapiens) |
| --- | --- | --- | --- | --- | --- | --- | --- | --- | --- | --- | --- | --- |
| CN1C[C@H]2c3ccccc3C[C@@H](C1=O)N2C(=O)c1cn(C)c(=O)c2[nH]ccc12 | 3.56 | > 25.1 | 7.94 | 0.9 |  |  |  |  |  |  |  |  |
| Cc1nnc2c(NCCCN3CCCC3)cc(C(=O)N3[C@H]4Cc5ccccc5[C@@H]3CNC4=O)nn12 | 0.041 | > 25.1 | > 31.6 | -0.3 |  |  |  |  |  |  |  |  |
| Cc1nnc2c(NCCCN3CCCC3)cc(C(=O)N3[C@@H]4c5ccccc5C[C@H]3C(=O)N[C@@H]4C(C)C)nn12 | 0.014 | > 25.1 | 25.1 | 0.5 | 2 | 25.1 |  |  |  |  |  | 126 |
| Cc1nnc2c(NC3CCN(C)CC3)cc(C(=O)N3[C@H]4Cc5ccccc5[C@@H]3CNC4=O)nn12 | 0.3 | > 25.1 | > 31.6 | 0.2 | 2.51 | 31.6 | 0.0316 |  |  |  |  | 79 |
| Cc1nnc2c(NC3CCN(CC(C)(F)F)CC3)cc(C(=O)N3[C@@H]4c5ccccc5C[C@H]3C(=O)N[C@@H]4C(C)C)nn12 | 0.022 | > 25.1 | > 31.6 | 3 | 0.501 | 50.1 |  | 0.501 | 0.501 | 0.501 |  | 25 |
| C[C@H]1NC(=O)[C@@H]2Cc3ccccc3[C@H]1N2C(=O)c1cn(C)c(=O)c2[nH]c3ccccc3c12 | 0.21 | > 25.1 | 31.6 | 1.9 |  |  |  |  |  |  |  |  |
| Cc1nnc2c(NCCCN3CCC(F)(F)CC3)cc(C(=O)N3[C@@H]4c5ccccc5C[C@H]3C(=O)N[C@@H]4C(C)C)nn12 | 0.02 | > 25.1 | > 31.6 | 3 | 1.26 | 31.6 |  |  |  |  |  | 63 |
| Cc1nnc2c(NC3CCN(C)CC3)nc(C(=O)N3[C@H]4Cc5ccccc5[C@@H]3CNC4=O)cn12 | > 20 |  |  | -0.3 |  |  |  |  |  |  |  |  |
| Cc1nnc2c(NC3CCN(C)CC3)cc(C(=O)N3[C@H]4Cc5ccccc5[C@@H]3CNC4=O)cn12 | 0.37 | > 25.1 | > 31.6 | -0.5 |  |  |  |  |  |  |  |  |
| CO[C@H]1CNC[C@@H](OCC2CCC(F)(F)CC2)[C@@H]1Nc1ncc(-c2cncc(C)c2)c2cc(C)c(=O)[nH]c12 |  |  |  | 2.7 |  |  |  |  |  |  |  |  |
| CC1=C(C#N)c2nc(N)c(C#N)c(C)c2/C1=C\c1ccc(-c2cc(C(=O)O)ccc2Cl)o1 |  |  |  |  |  |  | 3.16 |  |  |  | 1 |  |
| CC(C)[C@H]1NC(=O)[C@@H]2Cc3ccccc3[C@H]1N2C(=O)c1cn(C)c(=O)c2[nH]c3ccccc3c12 | 0.44 | > 25.1 | > 31.6 | 2.6 |  |  |  |  |  |  |  |  |
| Cn1cc(C(=O)N2[C@H]3Cc4ccccc4[C@@H]2CNC3=O)c2c([nH]c3ccccc32)c1=O | 0.42 | > 25.1 | 7.94 | 2 |  |  |  |  |  |  |  |  |
| C[C@H]1NC(=O)[C@@H]2Cc3ccccc3[C@H]1N2C(=O)c1cn(C)c(=O)c2[nH]c3ccc(OC(F)(F)F)cc3c12 | 0.078 | > 25.1 | > 31.6 | 3.4 | 1.26 | 126 |  | 0.794 | 0.501 | 0.794 |  | 16 |

Now from value to compound, other results behind:

| IC50 [1] [µM] | IC50 [2] [µM] | IC50 [3] [µM] | logD [4] | IC50 [5] [µM] | IC50 [6] [µM] | IC50 [7] [µM] | IC50 [8] [µM] | IC50 [9] [µM] | IC50 [10] [µM] | GI50 (MDA-MB-231) [µM] | SMILES | Ratio IC50 (Homo sapiens) |
| --- | --- | --- | --- | --- | --- | --- | --- | --- | --- | --- | --- | --- |
| 0.28 | > 25.1 | 25.1 | 0.8 |  |  |  |  |  |  |  | Cc1nnc2c(N)cc(C(=O)N3[C@H]4Cc5ccccc5[C@@H]3CNC4=O)nn12 |  |
| 20.2 | > 25.1 | > 31.6 | 0.9 |  |  |  |  |  |  |  | COc1cc(C(=O)N2C3Cc4ccccc4C2CNC3=O)cc(OC)c1O (stereo unspecified) |  |
| 26.3 | > 25.1 | > 31.6 | 0.3 |  |  |  |  |  |  |  | Cc1cc(C(=O)N2[C@H]3Cc4ccccc4[C@@H]2CNC3=O)c[nH]c1=O |  |
| 1.48 | > 25.1 | 15.8 | 0.7 |  |  |  |  |  |  |  | Cn1cc(C(=O)N2[C@H]3Cc4ccccc4[C@@H]2CNC3=O)c2cc[nH]c2c1=O |  |
| 11.8 | > 25.1 |  | 0.5 |  |  |  |  |  |  |  | CNc1cc(C(=O)N2[C@H]3Cc4ccccc4[C@@H]2CNC3=O)cn(C)c1=O |  |
| 4.88 | > 251 | > 31.6 | 2 |  |  |  |  |  |  |  | COc1cc(C(=O)N2[C@H]3Cc4ccccc4[C@@H]2CNC3=O)cc2c(C)n[nH]c12 |  |
| 21.2 | > 25.1 | > 31.6 | 0.9 |  |  |  |  |  |  |  | COc1cc(C(=O)N2[C@H]3Cc4ccccc4[C@@H]2CNC3=O)cc(OC)c1O |  |
| 34.3 | > 25.1 | > 31.6 | 0 |  |  |  |  |  |  |  | Cn1cc(C(=O)N2[C@H]3Cc4ccccc4[C@@H]2CNC3=O)cc(N)c1=O |  |
| 6.08 | > 25.1 | > 31.6 | 0.1 |  |  |  |  |  |  |  | Cc1nnc2c(N)cc(C(=O)N3[C@H]4Cc5ccccc5[C@@H]3CNC4=O)cn12 |  |
